Measured values taken from BindingDB's records for doi:10.7270/Q2736T2X (n/a, 1995).

Key:
[1] = molecular target: Muscarinic acetylcholine receptor M1/M2/M3/M4/M5; assay: Binding affinity towards muscarinic receptor using [3H]quinuclidinyl benzilate (QNB) to label antagonist sites in membrane preparations from rat neocortex
[2] = molecular target: Muscarinic acetylcholine receptor M1/M2/M3/M4/M5; assay: Binding affinity towards muscarinic receptor using [3H]cis-methyldioxolane (CMD) to label agonist sites in membrane preparations from rat neocortex

`O=[N+]([O-])c1cccc(C#CCO[N-][C+]2CN3CCC2C3)c1` (configuration not stated) [1-Aza-bicyclo[2.2.1]heptan-3-one O-[3-(3-nitro-phenyl)-prop-2-ynyl]-oxime] was tested, and the IC50 [1] was 6.4 µM and the IC50 [2] was 28 nM.
